From patent US5424205A, “Amyloidin protease and uses thereof” (Athena Neurosciences, Inc., priority 1993, dated 1995)
“Also recorded” adds a separate entry of the source. Residues, ends and D or L forms follow the SMILES beside them.

Key:
Type in all cases: biochemical
human skin chymase (HSC) = test: Cleavage of APP592-601 by human skin chymase; settings: 200 ng enzyme; standard peptide cleavage assay
Method: (§1) Routinely, 25 ul of enzyme solution were mixed with 10 ul of 1M Tris, pH 7.5, 5 ul 10 mM CaCl2, and 10 ul of a 2 mg/ml Stock solution of APP592-601 in water, or 20 mM Tris, pH 7.5, 0.15M NaCl, in 1.5 ml polypropylene microfuge tubes. The reaction mixtures were incubated for 60 min at 37° C. in a water bath, then quenched with 450 ul ice-cold ethanol, and incubated on ice for a further 20 min. They were centrifuged at 15,000×g for 10 min, and the supernatants transferred to new polypropylene tubes and dried under vacuum. The residue was dissolved in 0.5 ml water, centrifuged at 15,000×g for 5 min, and 200 ul of the supernatant injected onto a 0.46×30 cm Vydac C18 column equilibrated with 0.1% trifluoroacetic acid in water, at 1 ml/min. The column was immediately eluted with a linear gradient to 40% acetronitrile in 0.1% trifluoroacetic acid in water, over 20 minutes. The elution was monitored at 220 nm, and peaks were individually collected, hydrolyzed in 6N HCl at […] for 2 hr, then subjected to quantitative amino-acid analysis in an Applied Biosystems amino-acid analyzer. Once identified, times of elution were used to identify cleavage patterns.

clipsin/RMCP I = molecular target: T1, clipsin/RMCP I (Rattus norvegicus, UniProt P09650); test: Cleavage of APP592-601 by clipsin/RMCP I; settings: standard peptide cleavage assay
T1 sequence (P09650 21-260): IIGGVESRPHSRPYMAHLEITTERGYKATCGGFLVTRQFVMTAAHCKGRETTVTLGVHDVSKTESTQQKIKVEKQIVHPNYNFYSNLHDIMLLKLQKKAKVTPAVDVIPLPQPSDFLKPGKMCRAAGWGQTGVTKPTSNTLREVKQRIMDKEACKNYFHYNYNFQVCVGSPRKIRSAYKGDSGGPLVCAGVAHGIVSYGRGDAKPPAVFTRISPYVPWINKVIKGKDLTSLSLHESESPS
Method: as §1
The procedure to isolate RMCP I was adapted exactly from that described by Nelson & Siman (1990), supra. […]

[1] = tested on: extracts of mammalian tissues; test: Cleavage of amyloid-like substrate by soluble tissue extracts; settings: low-ionic strength extract; 0.1 to 10 mM Ca++; pH 6.5 to 8
Method: To isolate the amyloid protease activities of the present invention, extracts of mammalian tissues were made in a variety of aqueous buffers, such as, for example, Tris, phosphate and HEPES, of about 20-50 mM pH 7.5, at 4°-8° C., using conventional homogenation procedures, such as, for example, Waring blender or Teflon homogenizer, followed by repeated centrifugation at 10,000-15,000×g. The supernatant soluble fraction from this stage ("low ionic strength") are decanted and the pellet is further extracted with high ionic strength salt, for example 1M NaCl, and a detergent, such as 1% Triton X-100. If, however, the amyloidin proteases are to be isolated from mammalian cells such as erythrocytes, conventional cell disruption techniques may be employed. Such techniques include homogenization, sonication, osmotic lysis and pressure cycling. Prior to disruption, the cells may be first concentrated by filtration, centrifugation, or other conventional methods.
The various extracts are generally incubated with the amyloid-like substrates under a variety of conditions. […]
Aliquots of the sample are analyzed by injection onto a C18 reversed-phase HPLC column and elution with a 0-60% gradient of 0.1% TFA/acetonitrile, to assess the degradation of the substrate. […] Little peptide cleavage activity was detected under other extraction conditions, for example, with high salt or detergents. […]

amyloidin = molecular target: T2, amyloidin (Homo sapiens, UniProt P52888); test: Cleavage of APP592-601 and its analogs by amyloidin (subsite requirements); settings: pH 7.5, CaCl2, 37° C., 60 min; RP-HPLC
T2 construct: from tissue; a purification from blood is also described
Method: as §1
In order to test the subsite requirements of amyloidin in the APP592-601 cleavage assay, analogs of this peptide substrate were synthesized.
Following synthesis and purification, the peptides were then incubated with amyloidin under conditions identical to those developed with APP592-601. The underlined residues designated changes from the native peptide sequence while the arrows indicate peptide cleavage sites. [drawing 5]

T2 sequence (P52888 whole entry): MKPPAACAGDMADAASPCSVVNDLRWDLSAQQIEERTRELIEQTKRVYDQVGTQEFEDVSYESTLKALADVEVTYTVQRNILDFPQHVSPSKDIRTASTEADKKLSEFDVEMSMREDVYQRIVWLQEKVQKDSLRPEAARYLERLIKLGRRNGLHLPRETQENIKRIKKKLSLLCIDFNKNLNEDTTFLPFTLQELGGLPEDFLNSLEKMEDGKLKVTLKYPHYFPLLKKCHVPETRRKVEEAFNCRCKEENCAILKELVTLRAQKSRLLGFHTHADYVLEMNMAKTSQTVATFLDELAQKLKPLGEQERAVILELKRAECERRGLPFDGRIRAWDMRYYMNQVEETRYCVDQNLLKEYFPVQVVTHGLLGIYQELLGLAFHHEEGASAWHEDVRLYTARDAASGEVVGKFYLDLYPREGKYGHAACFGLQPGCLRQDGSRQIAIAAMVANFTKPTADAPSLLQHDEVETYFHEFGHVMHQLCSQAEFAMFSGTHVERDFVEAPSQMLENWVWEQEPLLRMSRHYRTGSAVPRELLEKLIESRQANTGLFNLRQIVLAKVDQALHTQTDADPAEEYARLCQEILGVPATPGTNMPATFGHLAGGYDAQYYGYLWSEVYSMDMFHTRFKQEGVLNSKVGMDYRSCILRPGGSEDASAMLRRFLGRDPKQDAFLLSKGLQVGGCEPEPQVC

site of cleavage by amyloidin (amyloidin): three-site cleavage
SMILES: CSCC[C@H](NC(=O)[C@H](CCCCN)NC(=O)[C@@H](NC(=O)[C@H](CCC(=O)O)NC(=O)[C@H](CO)NC(C)=O)C(C)C)C(=O)N[C@@H](CC(=O)O)C(=O)N[C@@H](C)C(=O)N[C@@H](CCC(=O)O)C(=O)N[C@@H](Cc1ccccc1)C(=O)N[C@@H](CCCNC(=N)N)C(=O)O [APP592-601] (Ac-SEVKMDAEFR-OH)
site of cleavage of APP592-601 by human skin chymase (human skin chymase (HSC)): cleavage at the Met-Asp bond; also recorded: all three proteases cleaved the APP592-601 peptide at the Met-Asp bond | site of cleavage of APP592-601 by clipsin/RMCP I (clipsin/RMCP I): cleavage at the Met-Asp bond; also recorded: selectively cleaves the amyloid substrate APP592-601 at the Met-Asp peptide bond; also recorded: all three proteases cleaved the APP592-601 peptide at the Met-Asp bond | major sites of cleavage by crude tissue extract [1]: between the Met-Asp, the Asp-Ala, and the Ala-Glu bonds
